The supplement of paper PMC11061612

Columns and labels:
[1] = test system: BICR78 (Oral Cavity Carcinoma); assay: combination Emax (second highest fraction inhibited in the dose matrix, 72 h); higher = more inhibition; extreme values may be limits of the assay
Outline: (§1)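 Bliss excess equals the observed combination effect minus the expected value EA + EB − EA·EB, where EA and EB are the effects of each agent alone. Combination Emax is the second-highest inhibition within the matrix. Inhibition was scaled from CellTiter-Glo 2.0 luminescence, with 0 set by vehicle wells and 1 by blank wells, after 72 hours of two-drug dosing of cells plated in 1536-well plates.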

HCC38 (Breast Carcinoma) = assay: as above
Outline: as §1

[2] = test system: HCC-827 (Lung Adenocarcinoma); assay: as above
Outline: as §1

[3] = test system: EFM-192A (Breast Carcinoma); assay: as above
Outline: as §1

SK-MEL-1 (Melanoma) = assay: as above
Outline: as §1

[4] = test system: SW48 (Colorectal Carcinoma); assay: as above
Outline: as §1

CS1 (Chondrosarcoma) = assay: as above
Outline: as §1

HuO9 (Osteosarcoma) = assay: as above
Outline: as §1

[5] = test system: EKVX (Non-Small Cell Lung Carcinoma); assay: as above
Outline: as §1

[6] = test system: WSU-DLCL2 (B-Cell Non-Hodgkin's Lymphoma); assay: as above
Outline: as §1

[7] = test system: P31-FUJ (Acute Myeloid Leukemia); assay: as above
Outline: as §1

EW-22 (Ewing's Sarcoma) = assay: as above
Outline: as §1

MSTO-211H (Mesothelioma) = assay: as above
Outline: as §1

A172 (Glioblastoma) = assay: as above
Outline: as §1

[8] = test system: KG-1 (Acute Myeloid Leukemia); assay: Bliss excess, mean over the matrix (fraction); higher = more synergy
Outline: as §1

[9] = test system: NOMO-1 (Acute Myeloid Leukemia); assay: as above
Outline: as §1

[10] = test system: RCC10RGB (Kidney Carcinoma); assay: as above
Outline: as §1

[11] = test system: SNU-61 (Colorectal Carcinoma); assay: as above
Outline: as §1

[12] = test system: 647-V (Bladder Carcinoma); assay: as above
Outline: as §1

[13] = test system: NCI-H1688 (Small Cell Lung Carcinoma); assay: as above
Outline: as §1

| SMILES | combination Emax [1] | combination Emax (HCC38 (Breast Carcinoma)) | combination Emax [2] | combination Emax [3] | combination Emax (SK-MEL-1 (Melanoma)) | combination Emax [4] | combination Emax (CS1 (Chondrosarcoma)) | combination Emax (HuO9 (Osteosarcoma)) | combination Emax [5] | combination Emax [6] | combination Emax [7] | combination Emax (EW-22 (Ewing's Sarcoma)) | combination Emax (MSTO-211H (Mesothelioma)) | combination Emax (A172 (Glioblastoma)) | Bliss excess [8] | Bliss excess [9] | Bliss excess [10] | Bliss excess [11] | Bliss excess [12] | Bliss excess [13] |
| --- | --- | --- | --- | --- | --- | --- | --- | --- | --- | --- | --- | --- | --- | --- | --- | --- | --- | --- | --- | --- |
| Cc1c2c(nn1C)CSCc1cc(n(C)n1)CSc1cc(c3ccccc3c1)OCCCc1c(C(=O)O)n(C)c3c-2c(Cl)ccc13 [AZD5991] + Cn1cnc2c(F)c(Nc3ccc(Br)cc3Cl)c(C(=O)NOCCO)cc21 [Selumetinib] (first compound max 1 µM, 7x7, partner max 3 µM) | 0.441 | 0.33 | 0.201 | 0.511 | 0.912 | 0.565 | 0.224 | 1 | 0.348 | 1 | 0.998 | 0.566 | 0.264 | 0.316 | 0.0316 | 0.135 | 0.0528 | -0.0079 | 0.0749 | 0.0484 |
| C[C@@H]1COCCN1c1cc(C2([S@](C)(=N)=O)CC2)nc(-c2ccnc3[nH]ccc23)n1 [AZD6738] + O=C(c1cc(Cc2n[nH]c(=O)c3ccccc23)ccc1F)N1CCN(C(=O)C2CC2)CC1 [Olaparib] (first compound max 10 µM, 7x7, partner max 10 µM) | 0.615 | 0.611 | 0.498 | 0.32 | 0.312 | 0.72 | 0.67 | 0.857 | 0.32 | 0.92 | 0.877 | 0.942 | 0.705 | 0.717 | -0.0154 | -0.0031 | 0.0483 | -0.0019 | 0.0753 | 0.0133 |
| Cc1cc2ncnn2cc1Nc1ncc2c(n1)n(C1CCOCC1)c(=O)n2C [AZD7648] + C=CCn1c(=O)c2cnc(Nc3ccc(N4CCN(C)CC4)cc3)nc2n1-c1cccc(C(C)(C)O)n1 [AZD1775] (first compound max 10 µM, partner max 1 µM) | 0.375 | 0.531 | 0.497 | 0.455 | 0.399 | 0.45 | 0.541 | 0.724 | 0.306 | 0.999 | 0.987 | 0.602 | 0.612 | 0.617 | -0.0652 | 0.0204 | 0.0016 | -0.049 | 0.0132 | -0.0094 |
| Cc1cc2ncnn2cc1Nc1ncc2c(n1)n(C1CCOCC1)c(=O)n2C [AZD7648] + CCN(CCO)CCCOc1ccc2c(Nc3cc(CC(=O)Nc4cccc(F)c4)[nH]n3)ncnc2c1 [AZD2811] (first compound max 10 µM, 7x7, partner max 1 µM) | 0.354 | 0.287 | 0.24 | 0.345 | 0.3 | 0.963 | 0.343 | 0.369 | 0.309 | 0.476 | 0.957 | 0.698 | 0.469 | 0.611 | 0.0351 | 0.131 | 0.0069 | -0.0383 | 0.0618 | 0.0154 |
| Cc1cc2ncnn2cc1Nc1ncc2c(n1)n(C1CCOCC1)c(=O)n2C [AZD7648] + CN(C)CCCOc1ccc(-c2ccc3ncc4c(c3c2)n(C2CCOCC2)c(=O)n4C)cn1 [AZD0156] (first compound max 10 µM, 7x7, partner max 1 µM) | 0.208 | 0.233 | 0.297 | 0.374 | 0.347 | 0.329 | 0.306 | 0.369 | 0.315 | 0.345 | 0.566 | 0.467 | 0.33 | 0.319 | -0.0155 | 0.0371 | -0.0735 | -0.0151 | 0.0401 | 0.0029 |
| Cc1cc2ncnn2cc1Nc1ncc2c(n1)n(C1CCOCC1)c(=O)n2C [AZD7648] + C[C@@H]1COCCN1C2=NC(=NC(=C2)C3(CC3)[S@](=N)(=O)C)C4=C5C=CNC5=NC=C4 [AZD6738] (first compound max 10 µM, 7x7, partner max 10 µM) | 0.598 | 0.565 | 0.5 | 0.292 | 0.293 | 0.681 | 0.591 | 0.756 | 0.317 | 0.905 | 0.967 | 0.851 | 0.681 | 0.687 | -0.0024 | 0.0248 | 0.0076 | 0.0199 | 0.0987 | 0.0136 |
| Cc1cc2ncnn2cc1Nc1ncc2c(n1)n(C1CCOCC1)c(=O)n2C [AZD7648] + O=C(c1cc(Cc2n[nH]c(=O)c3ccccc23)ccc1F)N1CCN(C(=O)C2CC2)CC1 [Olaparib] (first compound max 10 µM, 7x7, partner max 10 µM) | 0.182 | 0.07 | 0.199 | 0.278 | 0.24 | 0.246 | 0.221 | 0.441 | 0.147 | 0.307 | 0.34 | 0.918 | 0.218 | 0.468 | -0.0312 | -0.0359 | -0.0619 | -0.0443 | -0.0098 | -0.02 |
| COc1cccc2c1C(=O)c1c(O)c3c(c(O)c1C2=O)C[C@@](O)(C(=O)CO)C[C@@H]3O[C@H]1C[C@H](N)[C@H](O)[C@H](C)O1 [Doxorubicin] + Cc1cc2ncnn2cc1Nc1ncc2c(n1)n(C1CCOCC1)c(=O)n2C [AZD7648] (first compound max 1 µM, 7x7, partner max 10 µM) | 0.748 | 0.555 | 0.72 | 0.368 | 0.593 | 0.94 | 0.772 | 0.897 | 0.378 | 1 | 0.995 | 0.947 | 0.813 | 0.94 | 0.0044 | 0.128 | -0.0449 | -0.0124 | 0.107 | 0.0172 |
| COc1cccc(OCCCN)c1-c1cc(Nc2cnc(C#N)cn2)n[nH]1 [Prexasertib] + C=CCn1c(=O)c2cnc(Nc3ccc(N4CCN(C)CC4)cc3)nc2n1-c1cccc(C(C)(C)O)n1 [AZD1775] (first compound max 1 µM, partner max 1 µM) | 0.713 | 0.799 | 0.603 | 0.416 | 0.605 | 0.834 | 0.735 | 0.954 | 0.287 | 1 | 1 | 0.866 | 0.875 | 0.832 | 0.0038 | 0.0539 | -0.0202 | -0.0124 | 0.233 | 0.186 |
| COc1cccc(OCCCN)c1-c1cc(Nc2cnc(C#N)cn2)n[nH]1 [Prexasertib] + CCc1c2c(nc3ccc(O)cc13)-c1cc3c(c(=O)n1C2)COC(=O)[C@]3(O)CC [SN-38] (first compound max 1 µM, 7x7, partner max 0.3 µM) | 0.845 | 0.753 | 0.749 | 0.318 | 0.623 | 0.889 | 0.882 | 0.995 | 0.379 | 1 | 0.979 | 0.94 | 0.808 | 0.751 | -0.0454 | -0.0319 | -0.081 | 0.0163 | 0.0129 | 0.111 |
| COc1cccc(OCCCN)c1-c1cc(Nc2cnc(C#N)cn2)n[nH]1 [Prexasertib] + CN(C)CCCOc1ccc(-c2ccc3ncc4c(c3c2)n(C2CCOCC2)c(=O)n4C)cn1 [AZD0156] (first compound max 1 µM, 7x7, partner max 1 µM) | 0.593 | 0.711 | 0.552 | 0.233 | 0.605 | 0.767 | 0.685 | 0.785 | 0.265 | 1 | 0.998 | 0.898 | 0.888 | 0.699 | -0.0289 | -0.0154 | -0.0296 | -0.0459 | -0.0525 | 0.016 |
| COc1cccc(OCCCN)c1-c1cc(Nc2cnc(C#N)cn2)n[nH]1 [Prexasertib] + C[C@@H]1COCCN1C2=NC(=NC(=C2)C3(CC3)[S@](=N)(=O)C)C4=C5C=CNC5=NC=C4 [AZD6738] (first compound max 1 µM, 7x7, partner max 10 µM) | 0.645 | 0.723 | 0.549 | 0.188 | 0.624 | 0.81 | 0.714 | 0.855 | 0.24 | 1 | 1 | 0.888 | 0.852 | 0.775 | -0.0531 | -0.0147 | 0.0657 | -0.0693 | -0.0106 | 0.0117 |
| COc1cccc(OCCCN)c1-c1cc(Nc2cnc(C#N)cn2)n[nH]1 [Prexasertib] + Cc1cc2ncnn2cc1Nc1ncc2c(n1)n(C1CCOCC1)c(=O)n2C [AZD7648] (first compound max 1 µM, 7x7, partner max 10 µM) | 0.572 | 0.74 | 0.566 | 0.284 | 0.653 | 0.728 | 0.727 | 0.778 | 0.276 | 1 | 1 | 0.89 | 0.894 | 0.728 | -0.0264 | -0.0388 | -0.075 | -0.0123 | -0.0011 | 0.0044 |
| COc1cccc(OCCCN)c1-c1cc(Nc2cnc(C#N)cn2)n[nH]1 [Prexasertib] + O=C(c1cc(Cc2n[nH]c(=O)c3ccccc23)ccc1F)N1CCN(C(=O)C2CC2)CC1 [Olaparib] (first compound max 1 µM, 7x7, partner max 10 µM) | 0.679 | 0.677 | 0.523 | 0.143 | 0.596 | 0.658 | 0.706 | 0.878 | 0.194 | 1 | 1 | 0.957 | 0.806 | 0.626 | -0.0343 | -0.027 | -0.0784 | -0.0407 | 0.0459 | -0.0135 |
